Experimental data as given in the supplement of paper PMC11061612.

Columns and labels:
NCI-H2461 (Mesothelioma) = experiment: Bliss excess, mean over the matrix (fraction); higher = more synergy
How it was run: (§1)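 Cell lines in DMEM/F12 or RPMI with 10% FBS were plated in 1536-well plates, held 24 hours at 37°C, 5% CO2, then given two-drug dose matrices for 72 hours (DMSO typically 0.2%). Viability was read by CellTiter-Glo 2.0 luminescence and scaled as inhibition from 0 (vehicle wells) to 1 (blank wells). Combination Emax is the second-highest inhibition in the matrix; Bliss excess is observed combination effect minus expected EA + EB − EA·EB, EA and EB being single-agent effects.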

[1] = system: HO-1-u-1 (Oral Cavity Carcinoma); experiment: as above
How it was run: as §1

[2] = system: EN (Endometrial Carcinoma); experiment: as above
How it was run: as §1

[3] = system: SW1116 (Colorectal Carcinoma); experiment: as above
How it was run: as §1

[4] = system: SW1271 (Small Cell Lung Carcinoma); experiment: as above
How it was run: as §1

[5] = system: K5 (Thyroid Gland Carcinoma); experiment: as above
How it was run: as §1

NCI-H2795 (Mesothelioma) = experiment: as above
How it was run: as §1

[6] = system: PCI-30 (Head and Neck Carcinoma); experiment: as above
How it was run: as §1

RH-18 (Rhabdomyosarcoma) [7] = experiment: as above
How it was run: as §1

SIMA (Neuroblastoma) [8] = experiment: as above
How it was run: as §1

RH-18 (Rhabdomyosarcoma) [9] = experiment: combination Emax (second highest fraction inhibited in the dose matrix, 72 h); higher = more inhibition; extreme values may be limits of the assay
How it was run: as §1

SIMA (Neuroblastoma) [10] = experiment: as above
How it was run: as §1
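For Bliss excess, mean over the matrix in this document: after 72 h of two-drug dosing.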

| Compound | Bliss excess (NCI-H2461 (Mesothelioma)) | Bliss excess [1] | Bliss excess [2] | Bliss excess [3] | Bliss excess [4] | Bliss excess [5] | Bliss excess (NCI-H2795 (Mesothelioma)) | Bliss excess [6] | Bliss excess (RH-18 (Rhabdomyosarcoma) [7]) | Bliss excess (SIMA (Neuroblastoma) [8]) | combination Emax (RH-18 (Rhabdomyosarcoma) [9]) | combination Emax (SIMA (Neuroblastoma) [10]) |
| --- | --- | --- | --- | --- | --- | --- | --- | --- | --- | --- | --- | --- |
| COc1cccc(OCCCN)c1-c1cc(Nc2cnc(C#N)cn2)n[nH]1 [Prexasertib] + C=CCn1c(=O)c2cnc(Nc3ccc(N4CCN(C)CC4)cc3)nc2n1-c1cccc(C(C)(C)O)n1 [AZD1775] (first compound max 1 µM, partner max 1 µM) | -0.0573 | 0.0122 | 0.0115 | 0.0689 | 0.0019 | 0.0807 | 0.0221 | 0.0954 | 0.154 | 0.0181 | 0.492 | 0.993 |
| CN(CCO)CC[C@H](CSc1ccccc1)Nc1ccc(S(=O)(=O)NC(=O)c2ccc(N3CCC([C@@H](O)c4ccccc4-c4ccc(Cl)cc4)CC3)cc2)cc1S(=O)(=O)C(F)(F)F [AZD4320] + C[C@@H]1COCCN1C2=NC(=NC(=C2)C3(CC3)[S@](=N)(=O)C)C4=C5C=CNC5=NC=C4 [AZD6738] (first compound max 1 µM, 7x7, partner max 10 µM) | -0.0341 | 0.021 | -0.056 | -0.0406 | -0.0085 | -0.0512 | 0.0173 | -0.0223 | – | 0.0068 | – | 1 |
| CCN(CCO)CCCOc1ccc2c(Nc3cc(CC(=O)Nc4cccc(F)c4)[nH]n3)ncnc2c1 [AZD2811] + C=CCn1c(=O)c2cnc(Nc3ccc(N4CCN(C)CC4)cc3)nc2n1-c1cccc(C(C)(C)O)n1 [AZD1775] (first compound max 1 µM, partner max 1 µM) | -0.0679 | -0.0168 | -0.0426 | -0.0275 | -0.02 | -0.0062 | -0.0117 | 0.0191 | -0.0471 | -0.0113 | 0.245 | 0.855 |
| Cc1c2c(nn1C)CSCc1cc(n(C)n1)CSc1cc(c3ccccc3c1)OCCCc1c(C(=O)O)n(C)c3c-2c(Cl)ccc13 [AZD5991] + C[C@@H](Nc1cc(F)cc(F)c1)c1cc(C(=O)N(C)C)cc2c(=O)cc(N3CCOCC3)oc12 [AZD8186] (first compound max 1 µM, 7x7, partner max 3 µM) | -0.0062 | -0.014 | -0.109 | 0.0046 | -0.0576 | -0.0231 | 0.0848 | -0.0209 | – | -0.0084 | – | 0.218 |
| COc1cccc(OCCCN)c1-c1cc(Nc2cnc(C#N)cn2)n[nH]1 [Prexasertib] + CCc1c2c(nc3ccc(O)cc13)-c1cc3c(c(=O)n1C2)COC(=O)[C@]3(O)CC [SN-38] (first compound max 1 µM, 7x7, partner max 0.3 µM) | -0.114 | 0.0348 | 0.0282 | 0.076 | -0.088 | -0.0708 | -0.106 | 0.0215 | -0.0464 | – | 0.689 | – |
| Cc1c2c(nn1C)CSCc1cc(n(C)n1)CSc1cc(c3ccccc3c1)OCCCc1c(C(=O)O)n(C)c3c-2c(Cl)ccc13 [AZD5991] + CN(C)CCCOc1ccc(-c2ccc3ncc4c(c3c2)n(C2CCOCC2)c(=O)n4C)cn1 [AZD0156] (first compound max 1 µM, 7x7, partner max 1 µM) | 0.0373 | 0.04 | -0.024 | -0.0032 | 0.0034 | -0.0277 | 0.0192 | 0.0079 | – | 0.0197 | – | 0.398 |
| Cc1c2c(nn1C)CSCc1cc(n(C)n1)CSc1cc(c3ccccc3c1)OCCCc1c(C(=O)O)n(C)c3c-2c(Cl)ccc13 [AZD5991] + C[C@@H]1COCCN1C2=NC(=NC(=C2)C3(CC3)[S@](=N)(=O)C)C4=C5C=CNC5=NC=C4 [AZD6738] (first compound max 1 µM, 7x7, partner max 10 µM) | 0.0016 | -0.0074 | -0.0039 | 0.0515 | 0.0121 | 0.0076 | 0.0835 | 0.0378 | – | 0.024 | – | 0.98 |
| Cc1c2c(nn1C)CSCc1cc(n(C)n1)CSc1cc(c3ccccc3c1)OCCCc1c(C(=O)O)n(C)c3c-2c(Cl)ccc13 [AZD5991] + C=CCn1c(=O)c2cnc(Nc3ccc(N4CCN(C)CC4)cc3)nc2n1-c1cccc(C(C)(C)O)n1 [AZD1775] (first compound max 1 µM, partner max 1 µM) | 0.0081 | 0.0396 | -0.0038 | 0.005 | -0.0385 | -0.0391 | 0.0734 | 0.0371 | – | -0.0713 | – | 0.973 |
| Cc1c2c(nn1C)CSCc1cc(n(C)n1)CSc1cc(c3ccccc3c1)OCCCc1c(C(=O)O)n(C)c3c-2c(Cl)ccc13 [AZD5991] + Cn1cnc2c(F)c(Nc3ccc(Br)cc3Cl)c(C(=O)NOCCO)cc21 [Selumetinib] (first compound max 1 µM, 7x7, partner max 3 µM) | -0.0131 | 0.0168 | -0.0494 | -0.032 | -0.0287 | -0.0216 | 0.0278 | -0.0352 | – | 0.0879 | – | 0.516 |
| CN(CCO)CC[C@H](CSc1ccccc1)Nc1ccc(S(=O)(=O)NC(=O)c2ccc(N3CCC([C@@H](O)c4ccccc4-c4ccc(Cl)cc4)CC3)cc2)cc1S(=O)(=O)C(F)(F)F [AZD4320] + CN(C)CCCOc1ccc(-c2ccc3ncc4c(c3c2)n(C2CCOCC2)c(=O)n4C)cn1 [AZD0156] (first compound max 1 µM, 7x7, partner max 1 µM) | -0.0479 | 0.0032 | -0.0085 | -0.069 | -0.0413 | -0.0779 | -0.0596 | -0.0931 | – | -0.14 | – | 0.848 |
| Cc1c2c(nn1C)CSCc1cc(n(C)n1)CSc1cc(c3ccccc3c1)OCCCc1c(C(=O)O)n(C)c3c-2c(Cl)ccc13 [AZD5991] + CCN(CCO)CCCOc1ccc2c(Nc3cc(CC(=O)Nc4cccc(F)c4)[nH]n3)ncnc2c1 [AZD2811] (first compound max 1 µM, 7x7, partner max 1 µM) | 0.0185 | 0.0569 | 0.0145 | -0.003 | -0.0403 | -0.0431 | 0.041 | 0.0256 | – | -0.0271 | – | 0.768 |
| Cc1c2c(nn1C)CSCc1cc(n(C)n1)CSc1cc(c3ccccc3c1)OCCCc1c(C(=O)O)n(C)c3c-2c(Cl)ccc13 [AZD5991] + C1CN(CCC1(C(=O)N[C@@H](CCO)C2=CC=C(C=C2)Cl)N)C3=NC=NC4=C3C=CN4 [Capivasertib] (first compound max 1 µM, 7x7, partner max 3 µM) | -0.0345 | 0.0242 | -0.0547 | -0.0238 | -0.0664 | -0.021 | 0.119 | 0.0204 | – | -0.0195 | – | 0.176 |
| CCc1c2c(nc3ccc(O)cc13)-c1cc3c(c(=O)n1C2)COC(=O)[C@]3(O)CC [SN-38] + O=C(c1cc(Cc2n[nH]c(=O)c3ccccc23)ccc1F)N1CCN(C(=O)C2CC2)CC1 [Olaparib] (first compound max 0.3 µM, 7x7, partner max 10 µM) | 0.0234 | 0.0415 | -0.0377 | 0.0152 | 0.129 | 0.0566 | 0.08 | 0.0572 | 0.0899 | – | 0.76 | – |
| CN(CCO)CC[C@H](CSc1ccccc1)Nc1ccc(S(=O)(=O)NC(=O)c2ccc(N3CCC([C@@H](O)c4ccccc4-c4ccc(Cl)cc4)CC3)cc2)cc1S(=O)(=O)C(F)(F)F [AZD4320] + Cc1cc2ncnn2cc1Nc1ncc2c(n1)n(C1CCOCC1)c(=O)n2C [AZD7648] (first compound max 1 µM, 7x7, partner max 10 µM) | -0.0484 | -0.0172 | -0.01 | -0.0359 | -0.0386 | -0.0105 | -0.0395 | -0.057 | – | 0.0256 | – | 0.862 |
| CN(C)CCCOc1ccc(-c2ccc3ncc4c(c3c2)n(C2CCOCC2)c(=O)n4C)cn1 [AZD0156] + O=C(c1cc(Cc2n[nH]c(=O)c3ccccc23)ccc1F)N1CCN(C(=O)C2CC2)CC1 [Olaparib] (first compound max 3 µM, partner max 3 µM) | -0.0194 | 0.0795 | -0.0292 | -0.0431 | 0.0098 | 0.0542 | 0.0432 | -0.0129 | – | 0.0694 | – | 0.386 |
| CN(CCO)CC[C@H](CSc1ccccc1)Nc1ccc(S(=O)(=O)NC(=O)c2ccc(N3CCC([C@@H](O)c4ccccc4-c4ccc(Cl)cc4)CC3)cc2)cc1S(=O)(=O)C(F)(F)F [AZD4320] + C=CCn1c(=O)c2cnc(Nc3ccc(N4CCN(C)CC4)cc3)nc2n1-c1cccc(C(C)(C)O)n1 [AZD1775] (first compound max 1 µM, partner max 1 µM) | 0.016 | 0.0066 | -0.0337 | 0.0003 | 0.0152 | 0.0069 | -0.0225 | 0.0013 | – | -0.0156 | – | 1 |
| C=CCn1c(=O)c2cnc(Nc3ccc(N4CCN(C)CC4)cc3)nc2n1-c1cccc(C(C)(C)O)n1 [AZD1775] + C[C@@H]1COCCN1C2=NC(=NC(=C2)C3(CC3)[S@](=N)(=O)C)C4=C5C=CNC5=NC=C4 [AZD6738] (first compound max 1 µM, partner max 10 µM) | -0.081 | 0.0263 | – | -0.0075 | -0.0474 | -0.0453 | -0.0134 | 0.0406 | -0.0014 | 0.0547 | 0.625 | 0.906 |
| CN(CCO)CC[C@H](CSc1ccccc1)Nc1ccc(S(=O)(=O)NC(=O)c2ccc(N3CCC([C@@H](O)c4ccccc4-c4ccc(Cl)cc4)CC3)cc2)cc1S(=O)(=O)C(F)(F)F [AZD4320] + C1CN(CCC1(C(=O)N[C@@H](CCO)C2=CC=C(C=C2)Cl)N)C3=NC=NC4=C3C=CN4 [Capivasertib] (first compound max 1 µM, 7x7, partner max 3 µM) | -0.0564 | -0.0621 | -0.0343 | -0.0612 | -0.0606 | -0.0525 | -0.0572 | -0.0402 | – | -0.0435 | – | 0.814 |
| CN(CCO)CC[C@H](CSc1ccccc1)Nc1ccc(S(=O)(=O)NC(=O)c2ccc(N3CCC([C@@H](O)c4ccccc4-c4ccc(Cl)cc4)CC3)cc2)cc1S(=O)(=O)C(F)(F)F [AZD4320] + CCN(CCO)CCCOc1ccc2c(Nc3cc(CC(=O)Nc4cccc(F)c4)[nH]n3)ncnc2c1 [AZD2811] (first compound max 1 µM, 7x7, partner max 1 µM) | -0.0195 | 0.107 | -0.0073 | -0.0299 | -0.0428 | -0.0283 | 0.0386 | -0.0085 | – | 0.0814 | – | 0.971 |
